These results are taken from US10858305B2, “Perillyl alcohol-3-bromopyruvate conjugate and methods of treating cancer” (NeOnc Technologies, Inc., priority 2016, dated 2020).

Entries after “also recorded” stand apart in the source; their conditions may differ. Read-outs that look alike come from different tables or passages of the source. Where only a bound is given, the exact number is not on record here.

Series [1] deals with HCT116 cells. The series is described as follows: MTT assay with or without supplemental pyruvate. Type of series: cell-based, human. The settings on record: HCT116, MTT after 24 hours. How it is done: (§1) (A) HCT116 cells were treated with 40 μM 3-BP or NEO218 in the presence or absence of 1 mM NAC, 1 mM GSH, or 50 mM methyl-pyruvate (or sodium pyruvate, which produced similar outcomes). Cell viability was determined 24 hours later by MTT assay. (B) HCT116 cells were treated with 30 or 100 μM 3-BP or NEO218. After 30 minutes, cell lysates were prepared and analyzed for GAPDH activity. (C) Lysates from non-drug-treated MDA-MB-231 cells were mixed with 3-BP or NEO218 in the presence or absence of NAC or GSH at the concentrations mentioned in A. After 1 hour of incubation, GAPDH activity was determined. GAPDH activity in the absence of drug treatment was set at 100% (corresponding to 0.06 units/min×10^6 cells).
To test this hypothesis, HCT116 cells were treated with increasing concentrations of NEO218 and 3-BP (individually) in the presence or absence of 10 mM pyruvate. Viability of cells was determined 24 hours later by MTT cell viability assay.
Background: Tetrazolium dyes change colour on reduction, which living cells bring about.

The next series has as its system tumor cells. Put plainly: Cytotoxicity in the presence of necroptosis inhibitor necrostatin-1. In kind it is cell-based. The settings on record: data not shown. The text has this: All our data are highly consistent and point to necrosis as the overwhelmingly dominant mechanism of cell death by both 3-BP and NEO218 in our cell systems, as supported by the following observations: (i) A pan-caspase inhibitor exerted no influence on the cytotoxic IC50 of 3-BP or NEO218 (FIG. 21C). (ii) Several established protein markers of apoptosis show very little, if any, response to drug treatment (FIG. 21B). (iii) Loss of structural integrity of the plasma membrane is a hallmark of necrosis and can be documented via cellular uptake of membrane-impermeant dyes (such as propidium iodide, PI) or cellular leakage of cytosolic enzymes (such as lactate dehydrogenase, LDH). […] The loss of plasma membrane integrity is consistent with cell death induced by the severe ATP depletion observed by us (FIG. 22) and reported by others, because maintenance of the cytoplasmic transmembrane electrochemical gradients is highly energy dependent, and their loss inevitably leads to cell swelling and membrane rupture (i.e., necrosis). (iv) Rapid cell death is another characteristic of necrotic cell death. We detected PI positivity and LDH release within the first 2 hours of drug exposure (see FIG. 21A for PI; time course not shown for LDH). […] Cells were treated with 3-BP or NEO218 in the presence of necrostatin-1 (Nec-1), a commonly used inhibitor of necroptosis.

Series [2] has as its system HCT116, LN229, T98G, U251, MCF7, T47D, MDA-MB-231, MDA-MB-468, BTM-12, ME16C cells. The series is described as follows: 24-hour MTT assay in 10 cell lines with MCT-1 levels (FIGS. 16A-16C). Type of series: cell-based. The settings on record: Homo sapiens, read-out: IC50 (concentration of drug that kills 50% of the cell population). The source says:
The following established human cell lines were used: (A) HCT116 colon carcinoma; (B) LN229, T98G, and U251 glioblastoma; (C) MCF7, MDA-MB-231, MDA-MB-468, BTM-12, and T47D breast carcinoma; and ME16C normal mammary gland epithelium cells (immortalized with telomerase). […] Bars with error bars represent ≥3 measurements, whereas graphs without error bars show the average of two independent measurements. The middle panels show MCT-1 protein levels for each cell line, as determined by Western blot with actin as the loading control.
Methylthiazoletetrazolium (MTT) assays were performed as described earlier.
Because it was reported that the cytotoxic effects of 3-BP in vitro depend on the presence of MCT-1, we began our study by characterizing MCT-1 expression levels along with cytotoxicity of 3-BP in the various tumor cell lines to be used in our study. We included one colon carcinoma cell line (HCT116), three glioblastoma cell lines (LN229, T98G, U251), four breast cancer cell lines (MCF7, T47D, MDA-MB-231, MDA-MB-468), one culture of primary breast cancer cells (BTM-12), and an established line of normal breast epithelial cells (ME16C). For all 10 cell lines, we established IC50 (concentration of drug that kills 50% of the cell population) by MTT assay, along with MCT-1 protein levels by Western blot analysis. As summarized in FIGS. 16A-16C, MCT-1 levels varied greatly in the different cells, and so did their IC50 values.

Series [3] concerns tumor cells (two cell lines, incl. MCF7/Dox). The series is described as follows: Colony formation assay (CFA), 24 hours drug exposure (FIG. 5). The settings on record: colonies after ten to fifteen days. In kind it is cell-based, human. Here is the method:
The effect of NEO218 on tumor cell survival and colony formation relative to 3-BP, POH and 3-BP+POH was evaluated via the colony formation assay (CFA). Six hundred cells per culture well were seeded and exposed to increasing concentrations of NEO218, 3-BP, a mix of 3-BP+POH, or POH alone. After 24 hours, all drugs were removed from cells and fresh culture medium was added. Ten to fifteen days later, the surviving cells had formed colonies of descendants, which were stained and counted.

Series [4] concerns HCT116 cells. The series is described as follows: MTT assay with or without antioxidants NAC or GSH. Type of series: cell-based, human. The settings on record: HCT116, MTT after 24 hours. How it is done:
as §1
Tumor cells were treated with either NAC or GSH, in combination with NEO218 or 3-BP. HCT116 cells were treated with increasing concentrations of NEO218 and 3-BP (individually), in the presence or absence of 5 mM NAC or 1 mM GSH. After 24 hours, cell viability was determined by MTT assay.

The test system of series [5] is MCF7, 231, T47D, BTB-12, ME16C, 468, HCT116 cells. Put plainly: MTT cytotoxic IC50 aligned with MCT1 expression levels (FIG. 14). The settings on record: Homo sapiens.
Procedure: The expression levels of MCT1 in different tumor cell lines were determined by Western blot analysis and correlated with cytotoxic IC50 values in response of treatment of the same cells with NEO218 or 3-BP generated by MTT assay.

With `O=C(O)C(=O)CBr` [3-BP, 3-bromopyruvate], in the series with HCT116 cells [1], the “effect of supplemental pyruvate on drug-induced cell death” value is reported as “profound protection; also recorded: excess pyruvate was able to completely prevent cell death”. The “effect of necrostatin-1 on drug-induced cytotoxic outcome” value with tumor cells is “no impact of Nec-1 on drug-induced cytotoxic outcome could be detected”. Also, the IC50 in series [2] (24 h, cells with high MCT-1 levels (HCT116, U251, ME16C, MDA-MB-468), 24 hours) is 15 to 60 µM; in series [2] (24 h, cells with lesser MCT-1 levels, 24 hours) it was 150 to 300 µM; in series [5] (HCT-116, read-out: cytotoxic IC50), below 100 µM; in series [5] (read-out: cytotoxic IC50), above 300 µM. The “inhibition of colony formation, comparison” value in series [3] is given as “substantially less potent”. Also, the “effect of antioxidants NAC or GSH on drug-induced cell death” value with HCT116 cells [4] was “profound protection; also recorded: drug-induced cell death was completely prevented”.
As to `C=C(C)[C@@H]1CC=C(COC(=O)C(=O)CBr)CC1` [NEO218, 3-bromo-2-oxo-propionic acid 4-isopropenyl-cyclohex-1-enylmethyl ester], the “effect of supplemental pyruvate on drug-induced cell death” value in the series with HCT116 cells [1] is recorded as “no protection at all when pyruvate was added; also recorded: pyruvate had no effect on viability at all”. For the same molecule, in the series with tumor cells, the “effect of necrostatin-1 on drug-induced cytotoxic outcome” value is listed as “no impact of Nec-1 on drug-induced cytotoxic outcome could be detected”. In addition, the IC50 is 15 to 25 µM in series [2] (all 10 cell lines, irrespective of MCT-1 expression); below 10 µM in series [3] (Homo sapiens, MCF7-DOX, read-out: IC50 (cell survival and colony formation)); below 35 µM in series [5] (read-out: cytotoxic IC50). The “effect of antioxidants NAC or GSH on drug-induced cell death” value with HCT116 cells [4] was “antioxidant treatment similarly protected cells; also recorded: drug-induced cell death was completely prevented”.
